Test results reported in ChEMBL document CHEMBL1629637, “In vitro activities of tigecycline, minocycline, and colistin-tigecycline combination against multi- and pandrug-resistant clinical isolates of Acinetobacter baumannii group” (Antimicrob Agents Chemother, 2009).
Converted amounts (≈) assume the structure as drawn.

Columns and labels:
Acinetobacter baumannii [1] = assay: Antibacterial activity against colistin-susceptible Acinetobacter baumannii clinical isolates assessed as percent susceptible isolates by broth microdilution method; format: functional
Acinetobacter baumannii [2] = assay: Antibacterial activity against extensively drug-resistant Acinetobacter baumannii clinical isolates assessed as percent susceptible isolates by broth microdilution method; format: functional
Acinetobacter baumannii [3] = assay: Antibacterial activity against colistin-resistant Acinetobacter baumannii clinical isolates assessed as percent susceptible isolates by broth microdilution method; format: functional
Acinetobacter baumannii [4] = assay: Antibacterial activity against all antibiotic-resistant Acinetobacter baumannii clinical isolates assessed as percent susceptible isolates by broth microdilution method; format: functional
Acinetobacter baumannii [5] = assay: Antibacterial activity against colistin-resistant Acinetobacter baumannii clinical isolates by broth microdilution method; format: functional
Acinetobacter baumannii [6] = assay: Antibacterial activity against colistin-susceptible Acinetobacter baumannii clinical isolates by broth microdilution method; format: functional
Acinetobacter baumannii [7] = assay: Antibacterial activity against imipenem-susceptible Acinetobacter baumannii clinical isolates assessed as percent susceptible isolates by broth microdilution method; format: functional
[8] = Cmax in human serum at […], iv bolus dose followed by dose regimen of […] every 12 hrs; format: ADME, organism-based; parameters: route intravenous
Acinetobacter baumannii [9] = assay: Antibacterial activity against pandrug-resistant Acinetobacter baumannii clinical isolates by broth microdilution method; format: functional
Acinetobacter baumannii [10] = assay: Antibacterial activity against extensively drug-resistant Acinetobacter baumannii clinical isolates by broth microdilution method; format: functional
Acinetobacter baumannii [11] = assay: Antibacterial activity against imipenem-susceptible Acinetobacter baumannii clinical isolates by broth microdilution method; format: functional
[12] = Acinetobacter baumannii, read-out: MIC90

| Structure (SMILES) | Activity (Acinetobacter baumannii [1]) [%] | MIC50 (Acinetobacter baumannii [2]) [µg/mL] | MIC90 (Acinetobacter baumannii [2]) [µg/mL] | Activity (Acinetobacter baumannii [3]) [%] | MIC50 (Acinetobacter baumannii [4]) [µg/mL] | MIC90 (Acinetobacter baumannii [4]) [µg/mL] | MIC90 (Acinetobacter baumannii [5]) [µg/mL] | MIC90 (Acinetobacter baumannii [5]; [12]) [µg/mL] | MIC50 (Acinetobacter baumannii [6]) [µg/mL] | MIC50 (Acinetobacter baumannii [7]) [µg/mL] | MIC90 (Acinetobacter baumannii [7]) [µg/mL] | Cmax [8] [ng/mL] | MIC50 (Acinetobacter baumannii [9]) [µg/mL] | MIC90 (Acinetobacter baumannii [9]) [µg/mL] | MIC50 (Acinetobacter baumannii [10]) [µg/mL] | MIC90 (Acinetobacter baumannii [10]) [µg/mL] | MIC50 (Acinetobacter baumannii [11]) [µg/mL] | MIC90 (Acinetobacter baumannii [11]) [µg/mL] |
| --- | --- | --- | --- | --- | --- | --- | --- | --- | --- | --- | --- | --- | --- | --- | --- | --- | --- | --- |
| CN(C)c1ccc(O)c2c1C[C@H]1C[C@H]3[C@H](N(C)C)C(O)=C(C(N)=O)C(=O)[C@@]3(O)C(O)=C1C2=O [MINOCYCLINE] | 18 | 8 (≈ 17.5 µM) | 16 (≈ 35 µM) | 49.4 | 8 (≈ 17.5 µM) | 16 (≈ 35 µM) | 8 (≈ 17.5 µM) | 16 (≈ 35 µM) | 8 (≈ 17.5 µM) | 4 (≈ 8.74 µM) | 8 (≈ 17.5 µM) | – | – | – | – | – | – | – |
| CN(C)c1cc(NC(=O)CNC(C)(C)C)c(O)c2c1C[C@H]1C[C@H]3[C@H](N(C)C)C(O)=C(C(N)=O)C(=O)[C@@]3(O)C(O)=C1C2=O [TIGECYCLINE] | – | – | – | – | – | – | – | 2 (≈ 3.41 µM) | 1 (≈ 1.71 µM) | – | – | 630 | 1 (≈ 1.71 µM) | 2 (≈ 3.41 µM) | 1 (≈ 1.71 µM) | 2 (≈ 3.41 µM) | 1 (≈ 1.71 µM) | 2 (≈ 3.41 µM) |
